This note sets out measurements from publication PMC7076710, “Synthesis, Identification, and Structure–Activity Relationship Analysis of GATA4 and NKX2-5 Protein–Protein Interaction Modulators” (Journal of Medicinal Chemistry, 2019).

The target of this test is T1, GATA4–NKX2-5 transcriptional synergy (Mus musculus, UniProt P42582+Q08369).
T1 construct: expressed in transfected cells; host or cells: COS-1
Kind of test: GATA4–NKX2-5 transcriptional synergy luciferase reporter assay (3xNKE reporter, COS-1 cells). It counts as cell-based. As for the experimental part:
To screen compounds for the GATA4–NKX2-5 interaction, we have developed a luciferase reporter assay based on their property to activate gene transcription synergistically through the NKX2-5 binding site on DNA.[28] In this assay, we transfected mammalian COS-1 cells with protein expression vectors for GATA4 and NKX2-5 proteins together with artificial luciferase reporter vector containing three high affinity binding sites for NKX2-5 (NKE). […] All 257 compounds were tested in two concentrations, 3 and 10 μM. Compounds either inhibited, enhanced, or had no effect on the GATA4–NKX2-5 transcriptional synergy. To investigate the selectivity of the active compounds, we tested their effects on NKX2-5 transcriptional activity by using the same luciferase reporter vector as in transcriptional synergy assay with three NKE sites (Figure 3B). Furthermore, we used GATA luciferase reporter assay to examine if compounds have an effect on GATA4 transcriptional activity. In this assay, we cotransfected the cells with a GATA4 protein expression vector and a reporter vector with tandem GATA4 binding sites (Figure 3C). Previously we have reported that compound 1 inhibited the GATA4–NKX2-5 transcriptional synergy at micromolar concentrations (IC50 = 3 μM).[29]
The plasmids expressing mouse GATA4 protein, pMT2-GATA4, and empty pMT2 were gifts from D. B. Wilson (Department of Pediatrics, St. Louis Children’s Hospital, St. Louis, MO).[44] The plasmids expressing mouse NKX2-5 protein, pMT2-NKX2-5, have been described earlier.[28] The luciferase reporter plasmid used in GATA4–NKX2-5 transcriptional synergy assay and NKX transcriptional assay, pGL3-3xHA, contains three high affinity binding sites for NKX2-5.[28] The luciferase reporter plasmid used in GATA transcriptional assay, NP-112, contains tandem GATA-sites and minimal promoter of rat brain natriuretic peptide (BNP) gene.[45] The pGL3-BNP luciferase reporter containing −534/+4 bp rat BNP proximal promoter described previously was used in hypertrophy assay.[46]
The primary screening assay of compounds’ effect on GATA4–NKX2-5 transcriptional synergy and COS-1 cell culturing has been described earlier.[33] […] (Kinnunen et al., unpublished observation). Briefly, COS-1 cells were seeded at 14 000 cells/well in Isoplate-96 microplates (PerkinElmer, Turku, Finland) and grown overnight. The cells were transfected with the luciferase reporter plasmid pGL3-3xHA 100 ng/well and equal amounts of expression plasmids pMT2-GATA4 and pMT2-NKX2-5 total 50 ng/well. To verify the synergistic effect, the cells were transfected with pMT2-GATA4 or pMT2-NKX2-5 25 ng/well, and the total DNA concentration was adjusted to 50 ng/well with empty pMT2 plasmid. In NKX2-5 and GATA4 luciferase reporter assays, the cells were transfected with reporter plasmid pGL3-3xHA or NP-112 (100 ng/well) and expression plasmid pMT2-NKX2-5 or pMT2-GATA4 (25 ng/well). The ratio of DNA/transfection reagent (Fugene 6, Promega) was 1:3 in all assays. The transfections were performed in serum and antibiotics free media for 6 h. The cells were treated with compounds or vehicle (0.1% DMSO) for 24 h, and the luminescence was measured using neolite Reporter Gene Assay System (PerkinElmer, Turku, Finland) and Victor2 plate reader (PerkinElmer, Turku, Finland).
Raw luciferase data were analyzed in Excel, and clear outliers were removed from triplicates by using the Grubb’s test. Data analysis was performed using R.[49] The luciferase data were first normalized on the basis of the combined mean value of controls. For data visualization and creation of figures, the following R packages were used: ggplot2, cowplot, RColorBrewer, and pheatmap. The heatmaps of the toxicity data were produced with GraphPad Prism 7.00 (GraphPad Software, La Jolla, CA). Statistical significance of luciferase reporter assay data was evaluated by randomized block analysis of variance followed by Dunnett’s post hoc test. […]

Setting [1] is: COS-1, compound at 3 µM, luciferase reporter activity, % of control.
Setting [2] is: COS-1, compound 3 µM, luciferase reporter activity, spread in separate STDEV column.
Where [3] appears, read: COS-1, 3 µM, luciferase reporter activity, % of control.
[4] abbreviates: 3 µM compound, GATA4–NKX2-5 transcriptional synergy reporter, COS-1 cells.
Where [5] appears, read: 10 µM compound, GATA4–NKX2-5 transcriptional synergy reporter, COS-1 cells.
[6] abbreviates: COS-1, compound 3 µM, luciferase reporter activity relative to control.
Setting [7] is: COS-1, compound 10 µM, luciferase reporter activity relative to control.

T1 sequence (Q08369 whole entry): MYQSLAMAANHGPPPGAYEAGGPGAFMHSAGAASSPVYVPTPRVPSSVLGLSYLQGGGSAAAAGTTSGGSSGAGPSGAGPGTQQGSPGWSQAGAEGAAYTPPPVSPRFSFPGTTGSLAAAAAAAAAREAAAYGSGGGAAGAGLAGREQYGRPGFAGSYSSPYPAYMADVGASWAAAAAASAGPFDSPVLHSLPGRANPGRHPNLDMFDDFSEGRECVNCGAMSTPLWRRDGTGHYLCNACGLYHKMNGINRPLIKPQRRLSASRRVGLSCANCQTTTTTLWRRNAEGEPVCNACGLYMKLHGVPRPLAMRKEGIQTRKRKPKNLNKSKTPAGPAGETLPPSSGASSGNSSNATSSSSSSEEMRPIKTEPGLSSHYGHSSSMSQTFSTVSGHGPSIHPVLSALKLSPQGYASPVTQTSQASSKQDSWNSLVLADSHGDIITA
T1 sequence (P42582 whole entry): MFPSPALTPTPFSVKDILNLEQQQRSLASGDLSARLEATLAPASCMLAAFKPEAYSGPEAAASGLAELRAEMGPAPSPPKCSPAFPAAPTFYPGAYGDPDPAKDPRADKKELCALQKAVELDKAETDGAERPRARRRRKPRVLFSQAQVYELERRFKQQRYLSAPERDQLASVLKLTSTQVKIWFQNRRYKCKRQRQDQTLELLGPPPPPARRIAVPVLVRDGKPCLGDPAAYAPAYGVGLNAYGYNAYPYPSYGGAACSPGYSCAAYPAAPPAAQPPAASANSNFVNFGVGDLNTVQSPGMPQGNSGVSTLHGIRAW

On to `CCC(O)c1ccc(OCc2c(-c3ccccc3)noc2C)cc1` (racemic) [Compound 34d, (rac)-1-[4-[(5-Methyl-3-phenylisoxazol-4-yl)methoxy]phenyl]propan-1-ol], for which the activity at 3 µM under setting [1] was found to be 96.5%.
Take `Cc1onc(-c2ccccc2)c1C(=O)Nc1ccc2c(c1)C(=O)CC2` [Compound 4a, 5-Methyl-N-(3-oxo-2,3-dihydro-1H-inden-5-yl)-3-phenylisoxazole-4-carboxamide]: under setting [2], the activity at 3 µM was found to be 103%.
With `CCN(CCO)c1ccc(NC(=O)c2c(-c3ccccc3)noc2C)cc1` [Compound 4b], the activity at 3 µM under setting [1] is 93.7%.
Take `CCN(CC)c1ccc(NC(=O)c2c(-c3ccccc3)noc2C)cc1Cl` [Compound 4c]: the activity at 3 µM under setting [2] came out at 92.6%.
`Cc1onc(-c2ccccc2)c1C(=O)Nc1ccc(N(C)C)cc1` [Compound 4d, N-[4-(Dimethylamino)phenyl]-5-methyl-3-phenylisoxazole-4-carboxamide]: under setting [3], the activity at 3 µM worked out at 88.1%.
For `Cc1cc(NC(=O)c2c(-c3ccccc3)noc2C)ccc1C(C)C` [Compound 4e], the activity at 3 µM under setting [3] worked out at 95.2%.
The same measure, in the same setting: the same measure for `Cc1onc(-c2ccccc2)c1C(=O)Nc1ccc(OCCN2CCOCC2)cc1` [Compound 4h]: 89.8%.
For `CC[N+](C)(c1ccc(NC(=O)c2c(-c3ccccc3)noc2C)cc1)C(C)C` (centres unmarked) [Compound 7, N-Ethyl-N-isopropyl-N-methyl-4-(5-methyl-3-phenylisoxazole-4-carboxamido)benzenaminium Iodide], under setting [1], the activity at 3 µM was 88.4%.
As to `CCN(c1ccc(NC(=O)c2c(-c3ccccc3)noc2C)cc1[N+](=O)[O-])C(C)C` [Compound 8, N-[4-[Ethyl(isopropyl)amino]-3-nitrophenyl]-5-methyl-3-phenylisoxazole-4-carboxamide], the activity at 3 µM under setting [1] is 76.3%.
As to `CCN(c1ccc(NC(=O)c2c(-c3ccccc3)noc2C)cc1N)C(C)C` [Compound 9, N-[3-Amino-4-[ethyl(isopropyl)amino]phenyl]-5-methyl-3-phenylisoxazole-4-carboxamide], the activity at 3 µM under setting [1] was 92.6%.
Take `Cc1onc(-c2ccccc2)c1C(=O)Nc1ccc(C(=O)OCC#N)cc1` [Compound 10a, Cyanomethyl 4-(5-Methyl-3-phenylisoxazole-4-carboxamido)benzoate]: the activity at 3 µM under setting [4] was determined as 95%.
As for `Cc1onc(-c2ccccc2)c1C(=O)Nc1ccc(C(=O)OCCN(C)C)cc1` [Compound 10d], the activity at 3 µM under setting [2] is 99.6%. The activity at 10 µM (COS-1, compound 10 µM, luciferase reporter activity, spread in separate STDEV column) was 115%.
In the case of `C#Cc1ccc(NC(=O)c2c(-c3ccccc3)noc2C)cc1` [Compound 15, N-(4-Ethynylphenyl)-5-methyl-3-phenylisoxazole-4-carboxamide], the activity at 3 µM under setting [4] is 93.2%.
Same read-out and setting: to `CCN(CC)c1ccc(N(Cc2c(-c3ccccc3)noc2C)C(C)=O)cc1` [Compound 16, N-[4-(Diethylamino)phenyl]-N-[(5-methyl-3-phenylisoxazol-4-yl)methyl]acetamide] belongs 93.1%.
Consider `CCN(CC)c1ccc(/N=C/c2c(-c3ccccc3)noc2C)cc1` [Compound 19, (E)-N^1,N^1-Diethyl-N^4-[(5-methyl-3-phenylisoxazol-4-yl)methylene]benzene-1,4-diamine], for which the activity at 3 µM under setting [4] came to 102%. Further, the activity at 10 µM under setting [5] was 99.7%.
For `CCN(CC)c1ccc(NCc2c(-c3ccccc3)noc2C)cc1` [Compound 20, N^1,N^1-Diethyl-N^4-[(5-methyl-3-phenylisoxazol-4-yl)methyl]benzene-1,4-diamine] the same measures were 85.3% and 104%.
Turning to `CCN(CC)c1ccc(NS(=O)(=O)c2c(-c3ccccc3)noc2C)cc1` [Compound 21, N-[4-(Diethylamino)phenyl]-5-methyl-3-phenylisoxazole-4-sulfonamide], the activity at 3 µM under setting [6] was 104%.
With `Cc1onc(-c2ccccc2)c1COc1ccc([N+](=O)[O-])cc1` [Compound 21b], the activity at 3 µM under setting [3] was found to be 94%.
With `CCN(CC)c1ccc(NC(=S)c2c(-c3ccccc3)noc2C)cc1` [Compound 23, N-[4-(Diethylamino)phenyl]-5-methyl-3-phenylisoxazole-4-carbothioamide], the activity at 3 µM under setting [1] stood at 90.6%.
On the same count and under the same terms, to `CCN(CC)c1ccc(/N=C(\SC)c2c(-c3ccccc3)noc2C)cc1` [Compound 24a] belongs 72.7%.
`CCN(CC)c1ccc(/N=C(\SCCF)c2c(-c3ccccc3)noc2C)cc1` [Compound 24b]: the activity at 3 µM under setting [1] came to 122%. Further, where the note is “COS-1, compound at 10 µM, luciferase reporter activity, % of control”, the activity at 10 µM stood at 108%.
For the molecule `CCN(CC)c1ccc(N(CCF)C(=O)c2c(-c3ccccc3)noc2C)cc1` [Compound 25b], the activity at 3 µM under setting [6] worked out at 81.6%.
With `CCN(CC)c1ccc(N(Cc2ccccc2)C(=O)c2c(-c3ccccc3)noc2C)cc1` [Compound 25c], under setting [3], the activity at 3 µM turned out to be 80.2%.
`CCN(CC)c1ccc(N(C)C(=S)c2c(-c3ccccc3)noc2C)cc1` [Compound 26]: under setting [6], the activity at 3 µM came out at 92.9%.
Take `CCN(CC)c1ccc(C(=O)Nc2c(-c3ccccc3)noc2C)cc1` [Compound 27]: the activity at 3 µM under setting [1] came out at 98.5%.
For the molecule `CCN(CC)c1ccc(CN(C)c2c(-c3ccccc3)noc2C)cc1` [Compound 30a, N-[4-(Diethylamino)benzyl]-N,5-dimethyl-3-phenylisoxazol-4-amine], the activity at 3 µM under setting [6] was determined as 103%.
On the same count and under the same terms, to `CCN(CC)c1ccc(CN(C(=O)Nc2ccc(C#N)cc2)c2c(-c3ccccc3)noc2C)cc1` [Compound 30d] belongs 90%; to `CCN(CC)c1ccc(/C=N/c2c(-c3ccccc3)noc2C)cc1` [Compound 31, (E)-N-[4-(Diethylamino)benzylidene]-5-methyl-3-phenylisoxazol-4-amine], 94.1%.
Take `CCCOC(=O)c1ccc(OCc2c(-c3ccccc3)noc2C)cc1` [Compound 34c, Propyl 4-[(5-Methyl-3-phenylisoxazol-4-yl)methoxy]benzoate]: under setting [6], the activity at 3 µM amounted to 97.7%. Moreover, the activity at 10 µM under setting [7] turned out to be 107%.
Regarding `Cc1onc(-c2ccccc2)c1COc1ccc(C(=O)OCc2ccoc2)cc1` [Compound 35c], the activity at 3 µM under setting [6] is 114%. In addition, under setting [7], the activity at 10 µM came out at 101%.
Regarding `Cc1onc(-c2ccccc2)c1COc1ccc(C(=O)OCC(C)C)cc1` [Compound 35e], the activity at 3 µM under setting [6] worked out at 87.7%.
`Cc1onc(-c2ccccc2)c1COc1ccc(C(=O)N(C)CCCO)cc1` [Compound 36a]: the activity at 3 µM under setting [6] was found to be 106%. Under setting [7], the activity at 10 µM was 105%.
Turning to `CCN(CC)C(=O)c1ccc(OCc2c(-c3ccccc3)noc2C)cc1` [Compound 36b], the activity at 3 µM under setting [6] was 79.3%.
As to `Cc1onc(-c2ccccc2)c1COc1ccc(C(=O)O)cc1` [Compound 38, 4-[(5-Methyl-3-phenylisoxazol-4-yl)methoxy]benzoic Acid], the activity at 3 µM under setting [6] was determined as 102%.
In the case of `CCN(CC)c1ccc(NC(=O)c2c(-c3ccc([N+](=O)[O-])cc3)noc2C)cc1` [Compound 39a], the activity at 3 µM under setting [3] stood at 89.2%. Besides, under “COS-1, 10 µM, luciferase reporter activity, % of control”, the activity at 10 µM is 99.8%.
Consider `CCN(CC)c1ccc(NC(=O)c2c(-c3c(Cl)cccc3Cl)noc2C)cc1` [Compound 39e, 3-(2,6-Dichlorophenyl)-N-[4-(diethylamino)phenyl]-5-methylisoxazole-4-carboxamide], for which the activity at 3 µM under setting [1] was determined as 88.9%.
